What follows are compounds tested against SARS-CoV-2 3CL-protease (Severe acute respiratory syndrome coronavirus 2 (2019-nCoV) (SARS-CoV-2), UniProt P0DTD1) (assay: SARS-CoV-2 3C-like (3CL) protease fluorescence assay (FRET)). Conditions: recombinant SARS-CoV-2 3CL-protease 10 nM, 30 min preincubation at RT, TAMRA-SITSAVLQSGFRKMK-Dabcyl-OH substrate, run in duplicate.
Assay type: biochemical
Protocol: SARS-CoV-2 3C-like (3CL) protease fluorescence assay (FRET): Recombinant SARS-CoV-2 3CL-protease was expressed and purified. TAMRA-[…]-Dabcyl-OH peptide 3CLpro substrate was synthesized. Black, low volume, round-bottom, 384 well microplates were used. In a typical assay, 0.85 μL of test compound was dissolved in DMSO then incubated with SARS-CoV-2 3CL-protease (10 nM) in 10 μL assay buffer (50 mM HEPES [pH 7.5], 1 mM DTT, 0.01% BSA, 0.01% Triton-X 100) for 30 min at RT. Next, 10 μL of 3CL-protease substrate (40 μM) in assay buffer was added and the assays were monitored continuously for 1 h in an Envision multimode plate reader operating in fluorescence kinetics mode with excitation at 540 nm and emission at 580 nm at RT. No compound (DMSO only) and no enzyme controls were routinely included in each plate. All experiments were run in duplicate. Data Analysis: SARS-CoV-2 3CL-protease enzyme activity was measured as initial velocity of the linear phase (RFU/s) and normalized to controlled samples DMSO (100% activity) and no enzyme (0% activity) to determine percent residual activity at various concentrations of test compounds (0-10 μM). Data were fitted to normalized activity (variable slope) versus concentration fit in GraphPad Prism 7 to determine IC50.

Compared with `CC(C)C[C@@H](C(=O)N1C[C@]2(C[C@H]1C#N)C(=O)Nc1ccccc12)N1Cc2cc(Br)ccc2C1=O` [Compound 9, (3R,5'S)-1′-((S)-2-(5-bromo-1-oxoisoindolin-2-yl)-4-methylpentanoyl) oxospiro[indoline-3,3′-pyrrolidine]-5′-carbonitrile], `CC(C)C[C@H](C(=O)N1C[C@]2(C[C@H]1C#N)C(=O)Nc1ccccc12)n1cccc(-c2ccc(F)cc2)c1=O` [Compound 25-b] is higher in IC50: < 100 nM for the first, > 1000 nM for the second.

Same assay, conditions: recombinant SARS-CoV-2 3CL-protease 10 nM, 30 min preincubation at RT, TAMRA-[…]-Dabcyl-OH substrate, run in duplicate

First: CC(C)C[C@H](C(=O)N1C[C@]2(C[C@H]1C#N)C(=O)Nc1ccccc12)n1cccc(-c2ccncc2)c1=O [Compound 26-b]
Second: CC(C)C[C@@H](C(=O)N1C[C@]2(C[C@H]1C#N)C(=O)Nc1ccccc12)n1cccc(-c2ccncc2)c1=O [Compound 26-a]
The IC50 of the first is higher: > 1000 nM for the first, 100 to 1000 nM for the second. The second is the more potent here.

`COc1ccc2c(c1)CN([C@@H](CC(C)(C)C)C(=O)N1C[C@]3(C[C@H]1C#N)C(=O)Nc1ccccc13)C2=O` [Compound 17] and `COc1ccc2c(c1)C(=O)N([C@@H](CC(C)(C)C)C(=O)N1C[C@]3(C[C@H]1C#N)C(=O)Nc1ccccc13)C2` [Compound 18] cannot be ordered by IC50: < 100 nM for the first, < 100 nM for the second.

First: CC(C)C[C@@H](C(=O)N1C[C@]2(C[C@H]1C#N)C(=O)Nc1ccccc12)N1CCc2c(F)cccc2C1=O [Compound 3]
Second: CC(C)C[C@@H](C(=O)N1C[C@]2(C[C@H]1C#N)C(=O)Nc1ccccc12)N1CCc2cccc(F)c2C1=O [Compound 1, (3R,5'S)-1′-((S)-2-(8-fluoro-1-oxo-3,4-dihydroisoquinolin-2(1H)-yl)-4-methylpentanoyl)-2-oxospiro[indoline-3,3′-pyrrolidine]-5′-carbonitrile]
The IC50 of the first is lower: < 100 nM for the first, 100 to 1000 nM for the second.

Compared with `CC(C)(F)C[C@@H](C(=O)N1C[C@]2(C[C@H]1C#N)C(=O)Nc1ccccc12)N1Cc2cccc(Cl)c2C1=O` [Compound 16], `CC(C)(F)C[C@@H](C(=O)N1C[C@]2(C[C@H]1C#N)C(=O)Nc1ccccc12)N1Cc2c(Cl)cccc2C1=O` [Compound 14] is lower in IC50: 100 to 1000 nM for the first, < 100 nM for the second. The second is the more potent here.

First: CC(C)(C)C[C@@H](C(=O)N1C[C@]2(C[C@H]1C#N)C(=O)Nc1ccccc12)N1Cc2cccnc2C1=O [Compound 20]
Second: CC(C)(C)C[C@@H](C(=O)N1C[C@]2(C[C@H]1C#N)C(=O)Nc1ccccc12)N1Cc2cc(Cl)ccc2C1=O [Compound 12]
The IC50 of the first is higher: 100 to 1000 nM for the first, < 100 nM for the second. The second is the more potent here.

`CC(C)C[C@@H](C(=O)N1C[C@]2(C[C@H]1C#N)C(=O)Nc1ccccc12)N1C(=O)c2ccccc2[C@@H]1C` [Compound 22-b, (3R,5'S)-1′-((S)-4-methyl-2-((S)-1-methyl-3-oxoisoindolin-2-yl)pentanoyl)-2-oxospiro[indoline-3,3′-pyrrolidine]-5′-carbonitrile] and `CC(C)C[C@@H](C(=O)N1C[C@]2(C[C@H]1C#N)C(=O)Nc1ccccc12)N1C(=O)c2ccccc2[C@H]1C` [Compound 22-a, (3R,5'S)-1′-((S)-4-methyl-2-((R)-1-methyl-3-oxoisoindolin-2-yl)pentanoyl)-2-oxospiro[indoline-3,3′-pyrrolidine]-5′-carbonitrile] cannot be ordered by IC50: < 100 nM for the first, < 100 nM for the second.

`CC(C)(C)C[C@@H](C(=O)N1C[C@]2(C[C@H]1C#N)C(=O)Nc1ccccc12)N1CCc2cc(F)ccc2C1=O` [Compound 6] and `CC(C)(C)C[C@@H](C(=O)N1C[C@]2(C[C@H]1C#N)C(=O)Nc1ccccc12)N1CCc2ccc(F)cc2C1=O` [Compound 7] cannot be ordered by IC50: < 100 nM for the first, < 100 nM for the second.

`COc1cccc2c1CN([C@@H](CC(C)(C)C)C(=O)N1C[C@]3(C[C@H]1C#N)C(=O)Nc1ccccc13)C2=O` [Compound 19] and `CC(C)(C)C[C@@H](C(=O)N1C[C@]2(C[C@H]1C#N)C(=O)Nc1ccccc12)N1Cc2c(cccc2C(F)(F)F)C1=O` [Compound 11] cannot be ordered by IC50: < 100 nM for the first, < 100 nM for the second.

First: CC(C)(C)C[C@@H](C(=O)N1C[C@]2(C[C@H]1C#N)C(=O)Nc1ccccc12)N1CCc2cccc(F)c2C1=O [Compound 8]
Second: CC(C)(C)C[C@@H](C(=O)N1C[C@]2(C[C@H]1C#N)C(=O)Nc1ccccc12)N1CCc2c(F)cccc2C1=O [Compound 5]
The IC50 of the first is higher: 100 to 1000 nM for the first, < 100 nM for the second.

`CC(C)(F)C[C@@H](C(=O)N1C[C@]2(C[C@H]1C#N)C(=O)Nc1ccccc12)N1Cc2ccc(Cl)cc2C1=O` [Compound 15] and `CC(C)(F)C[C@@H](C(=O)N1C[C@]2(C[C@H]1C#N)C(=O)Nc1ccccc12)N1Cc2cc(Cl)ccc2C1=O` [Compound 13] cannot be ordered by IC50: < 100 nM for the first, < 100 nM for the second.

`CC(C)C[C@@H](C(=O)N1C[C@]2(C[C@H]1C#N)C(=O)Nc1ccccc12)N1Cc2c(cccc2C(F)(F)F)C1=O` [Compound 10] and `CC(C)C[C@@H](C(=O)N1C[C@]2(C[C@H]1C#N)C(=O)Nc1ccccc12)N1CCc2cc(F)ccc2C1=O` [Compound 4] cannot be ordered by IC50: < 100 nM for the first, < 100 nM for the second.

`C=C1c2ccccc2C(=O)N1[C@@H](CC(C)C)C(=O)N1C[C@]2(C[C@H]1C#N)C(=O)Nc1ccccc12` [Compound 22-c, (3R,5'S)-1′-((S)-4-methyl-2-(1-methylene-3-oxoisoindolin-2-yl)pentanoyl)-2-oxospiro[indoline-3,3′-pyrrolidine]-5′-carbonitrile] and `CC(C)C[C@@H](C(=O)N1C[C@]2(C[C@H]1C#N)C(=O)Nc1ccccc12)N1CCc2ccc(F)cc2C1=O` [Compound 2] cannot be ordered by IC50: < 100 nM for the first, < 100 nM for the second.

First: CC(C)(C)C[C@@H](C(=O)N1C[C@]2(C[C@H]1C#N)C(=O)Nc1ccccc12)N1C(=O)c2ccc(F)cc2C1(C)C [Compound 23, (3R,5'S)-1′-((S)-2-(6-fluoro-1,1-dimethyl-3-oxoisoindolin-2-yl)-4,4-dimethylpentanoyl)-2-oxospiro[indoline-3,3′-pyrrolidine]-5′-carbonitrile]
Second: CC(C)C[C@@H](C(=O)N1C[C@]2(C[C@H]1C#N)C(=O)Nc1ccccc12)N1C(=O)c2ccc(F)cc2C1(C)C [Compound 24]
The IC50 of the first is lower: 100 to 1000 nM for the first, > 1000 nM for the second.

`CC(C)(F)C[C@@H](C(=O)N1C[C@]2(C[C@H]1C#N)C(=O)Nc1ccccc12)N1Cc2ncc(Cl)cc2C1=O` [Compound 21] was tested, and the IC50 was < 100 nM.
